Target: T1, Human factor Xa (Homo sapiens, UniProt P00742)
T1 construct: leads from XII to XIIa to XIa to IXa and to the conversion of X to Xa; purchased Enzyme Research Laboratories, South Bend IN
Test: Xa Assay
Format: biochemical
Conditions: for IC50 or % Inhibition Factor Xa (30 µM): % inhibition at 30 µM (cells with % or %@30, bare 0)

T1 sequence (P00742 235-488 limits assumed): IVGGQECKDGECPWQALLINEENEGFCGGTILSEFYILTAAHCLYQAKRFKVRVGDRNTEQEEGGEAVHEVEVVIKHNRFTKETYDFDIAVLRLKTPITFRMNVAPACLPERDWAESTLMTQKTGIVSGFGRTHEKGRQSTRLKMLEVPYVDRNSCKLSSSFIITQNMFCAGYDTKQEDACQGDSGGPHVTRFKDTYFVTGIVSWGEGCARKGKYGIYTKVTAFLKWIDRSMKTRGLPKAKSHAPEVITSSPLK
T1 sequence (P00742 41-179 limits assumed): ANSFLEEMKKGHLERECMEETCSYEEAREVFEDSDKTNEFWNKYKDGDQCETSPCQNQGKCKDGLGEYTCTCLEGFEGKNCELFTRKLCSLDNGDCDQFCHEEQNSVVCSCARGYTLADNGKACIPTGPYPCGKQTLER

SMILES | IC50 or % Inhibition Factor Xa (30 µM) | % Inhibition Factor Xa (100 µM)
N=C(N)c1ccc(CNC(=O)Cn2c(-c3ccccc3)c(Cl)nc(NCCCn3ccnc3)c2=O)cc1 [1507-05] | 10% | 
N=C(N)c1ccc(CNC(=O)Cn2c(-c3ccccc3)c(Cl)nc(NCC(c3ccccc3)c3ccccc3)c2=O)cc1 [1507-09] | 13% | 
CSCC(C(=O)NCc1ccc(C(=N)N)cc1)n1c(-c2ccccc2)c(Cl)nc(NCCc2ccccc2)c1=O (stereo not shown) [1517-16] | 0% | 
CCc1c(Cl)nc(NCc2ccncc2)c(=O)n1CC(=O)NCc1ccc(C(=N)N)cc1 [1471-59] | 0% | 
Cc1c(Cl)nc(NCCc2cccc(Cl)c2)c(=O)n1CC(=O)NCc1ccc(C(=N)N)cc1 [1471-6] | 14% | 
CC(C)N(C)c1nc(Cl)c(-c2ccccc2)n(CC(=O)NCc2ccc(C(=N)N)cc2)c1=O [1517-31] | 0% | 
N=C(N)c1ccc(CNC(=O)Cn2c(-c3ccsc3)c(Cl)nc(NC3CCC3)c2=O)cc1 [1517-07] | 0% | 
N=C(N)c1ccc(CNC(=O)Cn2c(-c3ccccc3)c(Cl)nc(NCc3ccncc3)c2=O)cc1 [1471-11] | 9% | 
Nc1n[nH]c2cc(CNC(=O)Cn3c(-c4ccccc4)cnc(NCCc4ccccc4)c3=O)ccc12 [Example 39] | 0% | 
O=C(Cn1c(-c2ccc(Cl)cc2)c(Cl)nc(NCCN2CCOCC2)c1=O)NCCc1ccncc1 [Example E-0031] |  | 0%
N=C(N)c1ccc(CNC(=O)Cn2c(-c3ccccc3)c(Cl)nc(NCCc3ccc(Cl)c(Cl)c3)c2=O)cc1 [1507-44] | 9% | 
N=C(N)c1ccc(CNC(=O)Cn2c(-c3ccc4c(c3)OCO4)c(Cl)nc(NCCc3ccccc3)c2=O)cc1 [1471-47] | 22% | 
CCCCCNc1nc(Cl)c(-c2ccccc2)n(CC(=O)NCc2ccc(C(=N)N)cc2)c1=O [1517-48] | 0% | 
CC(C)(C)CCNc1nc(Cl)c(-c2ccccc2)n(CC(=O)NCc2ccc(C(=N)N)cc2)c1=O [1517-41] | 0% | 
CN(C)CCCNc1nc(Cl)c(-c2ccccc2)n(CC(=O)NCc2ccc(C(=N)N)cc2)c1=O [1507-47] | 19% | 
CC(C)Nc1nc(Cl)c(-c2cc(N)ccc2F)n(CC(=O)NCc2ccc(C(=N)N)cc2F)c1=O [compound 73] | 0% | 
N=C(N)c1ccc(CNC(=O)Cn2c(-c3ccc4c(c3)OCO4)c(Cl)nc(NCc3ccncc3)c2=O)cc1 [1471-43] | 18% | 
CN1CCCC1CCNc1nc(Cl)c(-c2ccccc2)n(CC(=O)NCc2ccc(C(=N)N)cc2)c1=O (stereo not shown) [1512-46] | 10% | 
Cc1c(Cl)nc(NCc2ccccc2)c(=O)n1CC(=O)NCc1ccc(C(=N)N)cc1 [1471-1] | 10% | 
CCc1c(Cl)nc(NCCN2CCOCC2)c(=O)n1CC(=O)NCc1ccc(C(=N)N)cc1 [1471-60] | 0% | 
N=C(N)c1ccc(CNC(=O)Cn2c(-c3cccc(Cl)c3)c(Cl)nc(NCCc3ccncc3)c2=O)cc1 [1471-29] | 21% | 

SMILES | IC50 or % Inhibition Factor Xa (30 µM) | % Inhibition Factor Xa (100 µM)
CC(C)Nc1nc(Cl)c(-c2cccc(N)c2)n(CC(=O)NCc2ccc(C(=N)N)c(F)c2)c1=O [Example 42] | 0% | 
N=C(N)c1ccc(CNC(=O)Cn2c(-c3c(Cl)cccc3Cl)c(Cl)nc(NC3CCC3)c2=O)cc1 [1517-12] | 0% | 
O=C(Cn1c(-c2ccc(Cl)cc2)c(Cl)nc(NCCc2ccc(Cl)cc2)c1=O)NCCc1ccncc1 [Example E-0028] |  | 0%
N=C(N)c1ccc(CNC(=O)Cn2c(-c3cccc(Cl)c3)c(Cl)nc(NCCc3cccc(Cl)c3)c2=O)cc1 [1471-30] | 41% | 
N=C(N)c1ccc(CNC(=O)Cn2c(-c3ccccc3)c(Cl)nc(NCCC3=CCCCC3)c2=O)cc1 [1507-17] | 16% | 
CC(C)Nc1nc(Cl)c(-c2ccc(Cl)nc2)n(CC(=O)NCc2ccc(C(=N)N)cc2F)c1=O [compound 74] | 13% | 
CCCC(CCC)Nc1nc(Cl)c(-c2ccccc2)n(CC(=O)NCc2ccc(C(=N)N)cc2)c1=O [1517-26] | 0% | 
N=C(N)c1ccc(CNC(=O)Cn2c(-c3c(Cl)cccc3Cl)c(Cl)nc(NCc3ccccc3)c2=O)cc1 [1517-06] | 0% | 
N=C(N)c1ccc(CNC(=O)Cn2c(-c3cccc(Cl)c3)c(Cl)nc(NCc3ccccc3)c2=O)cc1 [1471-25] | 31% | 
N=C(N)c1ccc(CNC(=O)Cn2c(-c3ccc(Cl)cc3)c(Cl)nc(NCCc3ccccc3)c2=O)cc1 [1471-23] | 36% | 
O=C(Cn1c(-c2ccc(Cl)cc2)c(Cl)nc(NCc2ccncc2)c1=O)NCCc1ccncc1 [Example E-0032] |  | 0%
N=C(N)c1ccc(CNC(=O)Cn2c(-c3ccc4c(c3)OCO4)c(Cl)nc(NCc3ccccc3)c2=O)cc1 [1471-41] | 34% | 
COc1ccc(-c2c(Cl)nc(NCCc3ccc(Cl)cc3)c(=O)n2CC(=O)NCCc2ccncc2)cc1 [Example E-0106] |  | 3%
N=C(N)c1ccc(CNC(=O)Cn2c(-c3ccc4c(c3)OCO4)c(Cl)nc(NCCc3cccc(Cl)c3)c2=O)cc1 [1471-46] | 21% | 
O=C(Cn1c(-c2cccc(Cl)c2)c(Cl)nc(NCc2ccccc2)c1=O)NCCc1cccnc1 [Example E-0086] |  | 4%
O=C(Cn1c(-c2ccc(-c3ccccc3)cc2)c(Cl)nc(NCc2ccccc2)c1=O)NCCc1ccncc1 [Example E-0109] |  | 3%
N=C(N)c1ccc(CNC(=O)Cn2c(-c3ccccc3)c(Cl)nc(NCc3cc(C(F)(F)F)cc(C(F)(F)F)c3)c2=O)cc1 [1507-40] | 11% | 
CCc1c(Cl)nc(NCCc2cccnc2)c(=O)n1CC(=O)NCc1ccc(C(=N)N)cc1 [1471-64] | 2% | 
N=C(N)c1ccc(CNC(=O)Cn2c(-c3ccccc3)c(Cl)nc(NCCc3ccccn3)c2=O)cc1 [1512-47] | 13% | 
CSCC(C(=O)NCc1ccc(C(=N)N)cc1)n1c(-c2ccccc2)c(Cl)nc(NCc2ccccc2)c1=O (stereo not shown) [1517-04] | 0% | 
CCCNc1nc(Cl)c(-c2ccccc2)n(CC(=O)NCc2ccc(C(=N)N)cc2)c1=O [1517-33] | 0% | 

SMILES | IC50 or % Inhibition Factor Xa (30 µM) | % Inhibition Factor Xa (100 µM)
N=C(N)c1ccc(CNC(=O)Cn2c(-c3ccccc3)c(Cl)nc(NCc3cc(Cl)ccc3Cl)c2=O)cc1 [1512-35] | 4% | 
N=C(N)c1ccc(CNC(=O)Cn2c(-c3ccccc3)c(Cl)nc(NC3CCS(=O)(=O)C3)c2=O)cc1 (stereo not shown) [1507-36] | 0% | 
N=C(N)c1ccc(CNC(=O)Cn2c(-c3ccc(Cl)cc3)c(Cl)nc(NCCc3ccc(Cl)cc3)c2=O)cc1 [1471-18] | 26% | 
N=C(N)c1ccc(CNC(=O)Cn2c(-c3ccccc3)c(Cl)nc(NCCc3ccc(Cl)cc3)c2=O)cc1 [1471-10] | 45% | 
O=C(Cn1c(-c2cccc(Cl)c2)c(Cl)nc(NCCc2ccccc2)c1=O)NCCc1cccnc1 [Example E-0089] |  | 4%
N=C(N)c1ccc(CNC(=O)Cn2c(-c3cccc(Cl)c3)c(Cl)nc(NCCN3CCOCC3)c2=O)cc1 [1471-28] | 8% | 
O=C(Cn1c(-c2ccc(Cl)cc2)c(Cl)nc(NCCc2cccnc2)c1=O)NCCc1ccncc1 [Example E-0029] |  | 0%
C[C@H](C(=O)NCc1ccc(C(=N)N)cc1)n1c(-c2ccccc2)c(Cl)nc(NCCc2cccc(Cl)c2)c1=O [1517-23] | 0% | 
N=C(N)c1ccc(CNC(=O)Cn2c(-c3ccccc3)c(Cl)nc(NCc3cc(F)c(F)c(F)c3)c2=O)cc1 [1512-32] | 5% | 
COc1ccc(CCNc2nc(Cl)c(-c3ccccc3)n(CC(=O)NCc3ccc(C(=N)N)cc3)c2=O)cc1OC [1512-05] | 10% | 
Cc1c(Cl)nc(NCCc2ccc(Cl)cc2)c(=O)n1CC(=O)NCc1ccc(C(=N)N)cc1 [1471-2] | 10% | 
N=C(N)c1ccc(CNC(=O)Cn2c(-c3ccccc3)c(Cl)nc(NC3CCCCCC3)c2=O)cc1 [1507-29] | 4% | 
CN(C)CCNc1nc(Cl)c(-c2ccccc2)n(CC(=O)NCc2ccc(C(=N)N)cc2)c1=O [1512-15] | 6% | 
CCc1c(Cl)nc(NCCc2ccncc2)c(=O)n1CC(=O)NCc1ccc(C(=N)N)cc1 [1471-61] | 0% | 
O=C(Cn1c(-c2cccc(Cl)c2)c(Cl)nc(NCCc2cccc(Cl)c2)c1=O)NCCc1cccnc1 [Example E-0092] |  | 3%
N=C(N)c1ccc(CNC(=O)Cn2c(-c3ccccc3)c(Cl)nc(NCCCN3CCCC3=O)c2=O)cc1 [1507-19] | 4% | 
N=C(N)c1ccc(CNC(=O)Cn2c(-c3c(Cl)cccc3Cl)c(Cl)nc(NCCc3cccc(Cl)c3)c2=O)cc1 [1517-24] | 0% | 
Cc1c(Cl)nc(NCCc2cccnc2)c(=O)n1CC(=O)NCc1ccc(C(=N)N)cc1 [1471-8] | 27% | 
CC(C)Nc1ncc(-c2cccc(N)c2)n(CC(=O)NCc2ccc(C(=N)N)c(F)c2)c1=O [Example 43] | 0% | 

— patent EP1586565A1, “Substituted polycyclic aryl and heteroaryl pyrazinones useful for selective inhibition of the coagulation cascade” (Pharmacia Corporation, priority 1999, dated 2000)
